Test results published in patent publication US5001255A, “Idene analogs of mevalonolactone and derivatives thereof” (Sandoz Pharm. Corp., priority 1988, dated 1991).

Columns and labels:
[1] = molecular target: T1, HMG-CoA reductase (Rattus norvegicus, UniProt P51639); assay: Test A. In Vitro Microsomal Assay of HMG-CoA Reductase Inhibition; format: biochemical, rat (male Sprague-Dawley); conditions: rat liver microsomes; [14C]HMG-CoA substrate; test substance 0.0001-2,000 μmolar; read-out: IC50 (concentration producing a 50% inhibition of HMG-CoA reductase activity)
T1 sequence (P51639 1-887): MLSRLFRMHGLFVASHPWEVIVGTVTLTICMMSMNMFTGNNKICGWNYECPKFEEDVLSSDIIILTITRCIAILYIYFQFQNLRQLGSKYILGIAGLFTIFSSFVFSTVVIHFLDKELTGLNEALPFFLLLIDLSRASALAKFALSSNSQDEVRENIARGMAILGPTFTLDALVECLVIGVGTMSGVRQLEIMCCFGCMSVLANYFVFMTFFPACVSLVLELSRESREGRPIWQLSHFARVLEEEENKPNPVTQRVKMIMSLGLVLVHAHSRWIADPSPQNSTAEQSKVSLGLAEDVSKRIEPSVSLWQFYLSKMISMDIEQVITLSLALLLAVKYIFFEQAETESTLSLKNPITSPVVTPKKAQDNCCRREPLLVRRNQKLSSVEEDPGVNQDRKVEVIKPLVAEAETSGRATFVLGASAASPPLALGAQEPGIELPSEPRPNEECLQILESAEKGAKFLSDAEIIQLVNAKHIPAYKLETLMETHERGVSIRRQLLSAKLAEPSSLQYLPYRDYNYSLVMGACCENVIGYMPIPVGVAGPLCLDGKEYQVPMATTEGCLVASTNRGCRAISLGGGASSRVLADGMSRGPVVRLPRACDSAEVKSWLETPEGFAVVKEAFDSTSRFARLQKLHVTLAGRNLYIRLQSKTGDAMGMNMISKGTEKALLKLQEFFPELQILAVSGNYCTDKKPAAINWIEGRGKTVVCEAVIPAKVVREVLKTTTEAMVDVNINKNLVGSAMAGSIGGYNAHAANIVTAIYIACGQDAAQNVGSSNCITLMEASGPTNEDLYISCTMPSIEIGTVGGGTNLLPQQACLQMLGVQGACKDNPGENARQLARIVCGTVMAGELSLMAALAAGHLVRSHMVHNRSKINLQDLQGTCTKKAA
Description: Test A. In Vitro Microsomal Assay of HMG-CoA Reductase Inhibition:
200 μl. aliquots (1.08-1.50 mg./ml.) of rat liver microsomal suspensions, freshly prepared from male Sprague-Dawley rats (150-225 g. body weight), in Buffer A with 10 mmol. dithiothreitol are incubated with 10 μl. of a solution of the test substance in dimethylacetamide and assayed for HMG-CoA reductase activity as described in Ackerman et al., J. Lipid Res. 18, 408-413 (1977), the concentration of the test substance in the assay system being 0.0001-2,000 μmolar. In the assay the microsomes are the source of the HMG-CoA reductase enzyme which catalyzes the reduction of HMG-CoA to mevalonate. The assay employs a chloroform extraction to separate the product, [^14 C]mevalonolactone, formed by the HMG-CoA reductase reduction of the substrate, [^14 C]HMG-CoA. [^3 H]mevalonolactone is added as an internal reference. Inhibition of HMG-CoA reductase is calculated from the decrease in specific activity ([^14 C/^3 H]mevalonate) of test groups compared to controls.
IC50 is the concentration of the test substance in the assay system calculated or observed to produce a 50% inhibition of HMG-CoA reductase activity.

[2] = tested on: 3β-hydroxysterol synthesis; assay: Test B. In Vivo Cholesterol Biosynthesis Inhibition Test; set-up: species or system rat (male Wistar Royal Hart); conditions: Rattus norvegicus; rats, oral, 0.5% carboxymethylcellulose; i.p. sodium [1-14C]acetate one hour later; serum two hours after mid-dark; read-out: ED50 (dose producing a 50% inhibition of 3β-hydroxysterol synthesis)
Description: Test B. In Vivo Cholesterol Biosynthesis Inhibition Test:
In vivo studies utilize male Wistar Royal Hart rats weighing 150±20 g. which have been kept for 7-10 days on an
altered light cycle (6:30 A.M.-6:30 P.M. dark) housed two per cage and fed powdered Purina Rat Chow and water ad libitum. Three hours before the diurnal maximum of cholesterol synthesis at mid-dark, the rats are orally administered the test substance (e.g., 0.01-200 mg./kg. body weight) dissolved or as a suspension in 0.5% carboxymethylcellulose in a volume of 1 ml./100 g. body weight. Controls receive vehicle alone. One hour after receiving the test substance (or the vehicle alone), the rats are injected intraperitoneally with about 25 μCi/100 g. body weight of sodium [1-^14 C]acetate 1-3 mCi/mmol. Two hours after mid-dark, blood samples are obtained under sodium hexobarbitol anesthesia, and the serum is separated by centrifugation.
The [^14 C]digitonides are then counted by liquid scintillation spectrometry. After correcting for efficiencies, the results are calculated in nCi (nanocuries) of 3β-hydroxysterol formed per 100 ml. of serum. Inhibition of 3β-hydroxysterol synthesis is calculated from the reduction in the nCi of 3β-hydroxysterols formed from test qroups compared to controls.
ED50 is the dose of the test substance calculated or observed to produce a 50% inhibition of 3β-hydroxysterol synthesis.

## O=C(O)C[C@H](O)C[C@H](O)/C=C/C1=C(c2ccc(F)cc2)c2ccccc2C12CCCC2
[1]
  IC50: 3 nM

## O=C(O)C[C@H](O)C[C@H](O)/C=C/C1=C(c2ccc(F)cc2)c2ccccc2C12CCCC2 (relative stereo) [Example 2, Sodium erythro-(E)-3,5-dihydroxy-7-[3'-(4"-fluorophenyl)spiro[cyclopentane-1,1'(1H)-inden]-2'-yl]hept-6-enoate]
[1]
  IC50: 5 nM
[2]
  ED50: 0.07 mg/kg

## Cc1cc(C)cc(C2=C(/C=C/[C@H]3C[C@@H](O)CC(=O)O3)C3(CCCC3)c3ccccc32)c1 (relative stereo) [Example 7]
[1]
  IC50: 150 nM

## Cc1cc(C)cc(C2=C(/C=C/[C@@H](O)C[C@@H](O)CC(=O)O)C3(CCCC3)c3ccccc32)c1 (relative stereo) [Example 8, Sodium erythro-(E)-3,5-dihydroxy-7-[3'-(3",5"-dimethylphenyl)spiro[cyclopentane-1,1'(1H)-inden]-2'-yl]hept-6-enoate]
[1]
  IC50: 7 nM
[2]
  ED50: 0.31 mg/kg

## CC[C@H](C)C(=O)O[C@H]1CCC=C2C=C[C@H](C)[C@H](CC[C@@H]3C[C@@H](O)CC(=O)O3)[C@H]21 [Compactin, reference compound]
[2]
  ED50: 3.5 mg/kg

## CCC1(CC)C(/C=C/C(O)CC(O)CC(=O)O)=C(c2ccc(F)cc2)c2ccccc21 (centres unmarked) [Example 17]
[1]
  IC50: 4700 nM

## CC(C)C1C(/C=C/[C@@H]2C[C@@H](O)CC(=O)O2)=C(c2ccc(F)cc2)c2ccccc21 (some centres unmarked) [Example 20]
[1]
  IC50: 530 nM

## CCOC(=O)CC(O)CC(O)/C=C/C1=C(c2ccc(F)cc2)c2ccccc2C12CC2 (centres unmarked) [Example 24]
[1]
  IC50: 19 nM
[2]
  ED50: 0.71 mg/kg
